Source: the supplement of paper PMC8612539
Values after ≈ are worked out from the molar mass of the structure shown.

Tests used:
Mannheimia haemolytica = experiment: minimum inhibitory concentration (MIC)
Experimental: (§1)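 Broth microdilution MIC (Sensititre BOPO7F bovine plate, CLSI methods) of 19 antimicrobials against field isolates of P. multocida, M. haemolytica, H. somni (deep nasopharyngeal swabs) and E. coli, Enterococcus spp. (rectal swabs) from weaned dairy heifers. Incubation 16-24 h at 35 C. MIC is the lowest concentration preventing visible growth. Values with <= or > lie at the tested range limits. Trimethoprim-sulfamethoxazole is given as the trimethoprim component of a 1:19 mixture.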

Enterococcus spp. = experiment: minimum inhibitory concentration (MIC)
Experimental: as §1

CN(C)[C@@H]1C(O)=C(C(N)=O)C(=O)[C@@]2(O)C(O)=C3C(=O)c4c(O)cccc4[C@@](C)(O)[C@H]3C[C@@H]12 [Tetracycline]
minimum inhibitory concentration [µg/mL]
Conditions	Enterococcus spp.	Mannheimia haemolytica
isolate (source animal id): 2	1 (≈ 2.25 µM)	–
isolate (source animal id): 8	–	> 8
isolate (source animal id): 13	–	> 8
isolate (source animal id): 18	–	> 8
isolate (source animal id): 21	–	> 8
isolate (source animal id): 25	–	4 (≈ 9 µM)
isolate (source animal id): 27	–	8 (≈ 18 µM)
isolate (source animal id): 28	–	8 (≈ 18 µM)
isolate (source animal id): 30	–	> 8
isolate (source animal id): 31	–	> 8
isolate (source animal id): 32	–	> 8
isolate (source animal id): 34	–	8 (≈ 18 µM)
isolate (source animal id): 35	> 8	–
isolate (source animal id): 36	–	8 (≈ 18 µM)
isolate (source animal id): 37	–	8 (≈ 18 µM)
isolate (source animal id): 40	–	> 8
isolate (source animal id): 41	–	8 (≈ 18 µM)
isolate (source animal id): 42	> 8	–
isolate (source animal id): 43	–	> 8
isolate (source animal id): 44	> 8	–
isolate (source animal id): 46	–	8 (≈ 18 µM)
isolate (source animal id): 49	–	4 (≈ 9 µM)
isolate (source animal id): 50	–	8 (≈ 18 µM)
isolate (source animal id): 51	–	8 (≈ 18 µM)
isolate (source animal id): 52	–	> 8
isolate (source animal id): 53	–	> 8
isolate (source animal id): 55	–	> 8
isolate (source animal id): 56	–	> 8
isolate (source animal id): 57	–	> 8
isolate (source animal id): 79	> 8	–
isolate (source animal id): 88	1 (≈ 2.25 µM)	–
isolate (source animal id): 91	2 (≈ 4.5 µM)	–
isolate (source animal id): 92	≤ 0.5	–
isolate (source animal id): 100	–	> 8
isolate (source animal id): 103	–	4 (≈ 9 µM)
isolate (source animal id): 107	–	4 (≈ 9 µM)
isolate (source animal id): 108	–	> 8
isolate (source animal id): 111	1 (≈ 2.25 µM)	–
isolate (source animal id): 112	–	> 8
isolate (source animal id): 113	–	> 8
isolate (source animal id): 121	–	8 (≈ 18 µM)
isolate (source animal id): 122	> 8	4 (≈ 9 µM)
isolate (source animal id): 123	> 8	> 8
isolate (source animal id): 126	–	4 (≈ 9 µM)
isolate (source animal id): 133	> 8	> 8
isolate (source animal id): 135	–	> 8
isolate (source animal id): 138	–	4 (≈ 9 µM)
isolate (source animal id): 141	–	> 8
isolate (source animal id): 142	–	> 8
isolate (source animal id): 145	–	4 (≈ 9 µM)
isolate (source animal id): 149	–	≤ 0.5
isolate (source animal id): 151	–	≤ 0.5
isolate (source animal id): 152	–	4 (≈ 9 µM)
isolate (source animal id): 154	–	≤ 0.5
isolate (source animal id): 158	> 8	–
isolate (source animal id): 159	–	4 (≈ 9 µM)
isolate (source animal id): 162	–	4 (≈ 9 µM)
isolate (source animal id): 168	> 8	–
isolate (source animal id): 169	> 8	–
isolate (source animal id): 170	–	8 (≈ 18 µM)
isolate (source animal id): 171	≤ 0.5	≤ 0.5
isolate (source animal id): 172	–	8 (≈ 18 µM)
isolate (source animal id): 173	–	8 (≈ 18 µM)
isolate (source animal id): 175	> 8	–
isolate (source animal id): 177	> 8	–
isolate (source animal id): 179	–	4 (≈ 9 µM)
isolate (source animal id): 180	–	4 (≈ 9 µM)
isolate (source animal id): 181	> 8	–
isolate (source animal id): 182	> 8	–
isolate (source animal id): 183	> 8	4 (≈ 9 µM)
isolate (source animal id): 186	–	4 (≈ 9 µM)
isolate (source animal id): 187	> 8	4 (≈ 9 µM)
isolate (source animal id): 188	–	4 (≈ 9 µM)
isolate (source animal id): 190	> 8	≤ 0.5
isolate (source animal id): 191	–	8 (≈ 18 µM)
isolate (source animal id): 192	–	≤ 0.5
isolate (source animal id): 194	≤ 0.5	–
isolate (source animal id): 195	> 8	–
isolate (source animal id): 197	> 8	–
isolate (source animal id): 201	–	8 (≈ 18 µM)
isolate (source animal id): 202	–	4 (≈ 9 µM)
isolate (source animal id): 209	–	8 (≈ 18 µM)
isolate (source animal id): 211	> 8	≤ 0.5
isolate (source animal id): 214	> 8	–
isolate (source animal id): 220	–	8 (≈ 18 µM)
isolate (source animal id): 221	–	4 (≈ 9 µM)
isolate (source animal id): 222	> 8	–
isolate (source animal id): 223	≤ 0.5	4 (≈ 9 µM)
isolate (source animal id): 228	> 8	–
isolate (source animal id): 230	> 8	–
isolate (source animal id): 233	–	4 (≈ 9 µM)
isolate (source animal id): 235	> 8	–
isolate (source animal id): 236	≤ 0.5	–
isolate (source animal id): 237	–	≤ 0.5
isolate (source animal id): 239	≤ 0.5	–
isolate (source animal id): 241	> 8	8 (≈ 18 µM)
isolate (source animal id): 244	≤ 0.5	–
isolate (source animal id): 246	> 8	–
isolate (source animal id): 247	> 8	–
isolate (source animal id): 250	> 8	–
isolate (source animal id): 252	> 8	4 (≈ 9 µM)
isolate (source animal id): 253	–	> 8
isolate (source animal id): 259	–	8 (≈ 18 µM)
isolate (source animal id): 260	–	> 8
isolate (source animal id): 262	–	4 (≈ 9 µM)
isolate (source animal id): 268	1 (≈ 2.25 µM)	–
isolate (source animal id): 282	≤ 0.5	4 (≈ 9 µM)
isolate (source animal id): 285	≤ 0.5	–
isolate (source animal id): 287	–	8 (≈ 18 µM)
isolate (source animal id): 288	–	≤ 0.5
isolate (source animal id): 289	≤ 0.5	–
isolate (source animal id): 290	≤ 0.5	–
isolate (source animal id): 291	–	≤ 0.5
isolate (source animal id): 293	–	4 (≈ 9 µM)
isolate (source animal id): 296	≤ 0.5	–
isolate (source animal id): 298	> 8	> 8
isolate (source animal id): 299	–	> 8
isolate (source animal id): 300	–	≤ 0.5
isolate (source animal id): 301	≤ 0.5	–
isolate (source animal id): 302	–	> 8
isolate (source animal id): 304	–	> 8
isolate (source animal id): 306	–	≤ 0.5
isolate (source animal id): 308	–	≤ 0.5
isolate (source animal id): 309	–	≤ 0.5
isolate (source animal id): 310	> 8	–
isolate (source animal id): 313	–	4 (≈ 9 µM)
isolate (source animal id): 318	–	4 (≈ 9 µM)
isolate (source animal id): 320	> 8	≤ 0.5
isolate (source animal id): 321	–	4 (≈ 9 µM)
isolate (source animal id): 323	–	> 8
isolate (source animal id): 324	–	8 (≈ 18 µM)
isolate (source animal id): 326	–	4 (≈ 9 µM)
isolate (source animal id): 328	–	8 (≈ 18 µM)
isolate (source animal id): 329	–	4 (≈ 9 µM)
isolate (source animal id): 331	≤ 0.5	–
isolate (source animal id): 333	≤ 0.5	4 (≈ 9 µM)
isolate (source animal id): 335	–	4 (≈ 9 µM)
isolate (source animal id): 338	–	4 (≈ 9 µM)
isolate (source animal id): 341	> 8	–
